# Patent US8119640B2, “Hedgehog pathway antagonists methods of use” (The Board of Trustees of the Leland Stanford Junior …, priority 2008, dated 2012)
# Tests used:
# MAPK = conditions: NIH-3T3 cells, 10 μM U0126
# Method: NIH-3T3 cells were seeded into 6-well plates and grown to 80% confluency in DMEM containing 10% CS, 100 U/mL penicillin, and 0.1 mg/mL streptomycin. Cells were then serumstarved for 8 h in DMEM containing 0.5% CS and either DMSO, 15 μM HPI-1, 20 μM HPI-2, 30 μM HPI-3, or 30 μM HPI-4. 50 μM LY294002 and 10 μM U0126 were used as positive controls. After serum starvation, cells were stimulated with 10 ng/ml PDGF BB for 30 min, washed in PBS, and lysed in buffer containing 50 mM Tris HCl pH 7.4, 250 mM NaCl, 20 mM NaF, 2 mM sodium orthovanadate, 2 mM EDTA, 2 mM PMSF, 1% Triton X-100, and EDTA free protease inhibitor cocktail (Roche). Cell lysates were clarified by centrifugation at 20,000×g and total protein concentrations were determined by the BCA assay (Pierce). 15 μg of protein from each lysate was mixed with 6×SDS-PAGE sample buffer (300 mM Tris-HCl, pH 6.8 containing 60% glycerol, 12% SDS, 600 mM DTT, and 0.05% bromophenol blue), boiled for 17 5 min and then resolved on 4-12% Bis-Tris Criterion XT gels. The electrophoresed samples were transferred to PVDF membranes and blocked overnight in TBST buffer containing 5% BSA. […]
# Smo = Smo (Mus musculus, UniProt P56726); assay: FRET assay for Smo multimerization (Smo-CFP/Smo-YFP); type: cell-based, murine; design: expressed in transfected cells; host or cells: NIH-3T3; conditions: 10 μM cyclopamine, 500 nM SAG, 10 μM HPIs
# Method: FRET assay for Smo multimerization. […] The cells were washed with PBS buffer, fixed with 4% paraformaldehyde for 20 min, and mounted on slides in 80% glycerol. Fluorescence signals were acquired with the 100× objective of a Zeiss LSM510 confocal microscope with the following conditions: CFP was excited by 458-nm light and the emission was collected through a BP 480-520-nm filter. YFP was excited by 514-nm light and the emission was collected through a BP 535-590-nm filter. The CFP signal was obtained before and after photobleaching YFP(CFPBP and CFPAP, respectively) using the full power of the 514-nm laser line for 1-2 min at the top half of each cell, leaving the bottom half unbleached as an internal control. The CFP fluorescence intensity was analyzed using Metamorph software (Universal Imaging Corp.), and the energy transfer efficiency was calculated using the formula: FRET %=((CFPAP−CFPBP)/CFPAP)×100. Photobleached areas in 11-19 cells were analyzed for each experimental condition.
# C3H10T(1/2) cells = assay: C3H10T(1/2) assay for Hh pathway activation (alkaline phosphatase); type: cell-based
# Method: C3H10T(1/2) assay for Hh pathway activation. C3H10T(1/2) cells (ATCC) were plated into 96-well plates using DMEM containing 10% FBS, 100 U/mL penicillin, 0.1 mg/mL streptomycin, 5% Shh-N-conditioned medium, and various concentrations of the Hh pathway inhibitors. After approximately 40 h, the cells were washed with PBS and lysed in 50 μL of buffer containing 50 mM Tris-HCl, pH 9.5, 150 mM NaCl, 5 mM MgCl2, and 1% Triton X-100. Alkaline phosphatase activities in the cell lysates were quantified by adding 10 μL of the lysate to 50 μL of CDP-Star chemiluminescence reagent (Perkin Elmer) and measuring the resulting chemiluminescence on a Veritas microplate luminometer.
# Hh pathway [1] = assay: Shh-EGFP assay for Hh pathway activation; type: cell-based; conditions: 3 μM cyclopamine; 15 μM HPI-1, 20 μM HPI-2, 30 μM HPI-3, 30 μM HPI-4
# Method: Shh-EGFP assay for Hh pathway activation. A Gli-dependent enhanced green fluorescent protein reporter (Shh-EGFP) was generated by excising firefly luciferase cDNA from the 8XGliBs vector using NcoI/Hpal, and ligating in EGFP cDNA excised from the pEGFP-C1 vector (Clontech) by NcoI/Af/II digestion. […] The cells were grown to confluency and treated with DMEM containing 0.5% CS, 100 U/mL penicillin, 0.1 mg/mL streptomycin, and 5% Shh-N-conditioned medium for 30 h. Following Shh-N treatment, the adherent cultures were dissociated into single cells with 0.05% Trypsin-EDTA (300 μL/well; Invitrogen) for 5 min. The cells were then suspended in 1 mL of PBS containing 1% CS and sorted on a BD FACSAria (excitation: 488 nm; emission: 530/30 nm) to enrich for cells expressing EGFP in a Shh-N-responsive manner. […] To identify Shh-EGFP clones with maximum Shh-N-responsiveness, individual lines were seeded into 24-well plates (45,000 cell/well) and cultured for 48 h. The cells were then treated with DMEM containing 0.5% CS, 100 U/mL pencillin, 0.1 mg/mL streptomycin or the culture medium plus 5% Shh-N-conditioned medium. After 30 h, the adherent cultures were treated with 0.05% trypsin-EDTA (150 μL/well; Invitrogen) for 5 min to dissociate them into single cells. The cells were then resuspended in 500 μL of PBS containing 1% CS and analyzed on a BD FACSCalibur (excitation: 488 nm; emission: 530/30 nm). 10,000 cells were used to assess EGFP expression levels as a measure of Hh pathway activation, and the data was analyzed using FlowJo software (Tree Star). Clones with low basal EGFP levels and maximum Shh-Ninduced EGFP expression were selected for further use. To assess the inhibitory activities of the HPIs in the Shh-EGFP cells, a clonal line with maximum Shh-responsiveness was cultured in 24-well plates as described above. […] The resulting EGFP levels were then evaluated by FACS and quantified using the FlowJo software.
# Hh pathway [2] = conditions: β-galactosidase reporter
# Method: Ptch1^−/− fibroblast assay for Hh pathway activation Hh pathway activation in Ptch1^−/− fibroblasts was assayed as previously described, using the knocked-in β-galactosidase gene as a reporter for Hh target gene expression. Ptch1^−/− fibroblasts were grown to 70-80% confluence in a 15-cm dish, trypsinized, and then resuspended in 40 mL of DMEM containing 10% FBS, 100 U/mL penicillin, and 0.1 mg/mL DMSO. This cell suspension was aliquoted into 96-well plates (150 μL/well), cultured overnight, and then treated with DMSO or various concentrations of the HPIs for 28 h. […] The cells were then lysed in Tropix lysis solution (30 μL/well; Applied Biosystems) and β-galactosidase levels were quantified by a Tropix Galacto-Star kit (Applied Biosystems) on a Veritas microplate luminometer.
# Hh pathway [3] = system: Hh pathway
# Method: SmoM2-LIGHT assay for Hh pathway activation. SmoM2-LIGHT cells (previously named SmoA1-LIGHT cells) were grown to 70-80% confluence in a 15-cm dish, trypsinized, and then resuspended in 40 mL of DMEM containing 10% FBS, 100 U/mL penicillin, and 0.1 mg/mL DMSO. This cell suspension was aliquoted into 96-well plates (150 μL/well), cultured overnight, and then treated with DMSO or various concentrations of the HPIs for 28 h. Cells were then washed once with PBS then treated with 50 μL of passive lysis buffer (Promega). Hh pathway-dependent firefly luciferase activity in the lysates was quantified using Bright-Glo reagent and a Veritas microplate luminometer. Constitutive β-galactosidase activity was measured using the Tropix Galacto-Star kit.
# FLAG-Gli2 = assay: Analysis of Gli2 processing and Shh-dependent Gli2 stabilization; type: cell-based, mouse; conditions: Shh-EGFP FLAG-Gli2 cells, absence and presence of Shh, 24 h
# Method: Analysis of Gli2 processing and Shh-dependent Gli2 stabilization. […] Each compound incubation was also done in the absence and presence of 5% Shh-N-conditioned medium, and the cells were maintained under these conditions for 24 h. The cells were subsequently solubilized in lysis buffer (100 μL/well; 50 mM Tris-HCl, pH 7.4, 1% Triton X-100, 250 mM NaCl, 2 mM EDTA, 20 mM NaF, 2 mM Na3VO4, 2 mM 2-mercaptoethanol, EDTA-free protease inhibitor cocktail (Roche)). This suspension was transferred to a 1.5-mL centrifuge tube and incubated on ice for 30 min, with vortexing every 5 min. The cell lysates were then centrifuged at 20,000×g at 4° C. for 20 min. Supernatants were removed, and a BCA protein assay was performed to quantify protein levels. Mouse anti-FLAG M2 agarose slurry (20 μL, Sigma) was pelleted by centrifugation and incubated with 800 ng of protein from each condition for 90 min at 4° C. and then washed three times with 1 mL of wash buffer (75 mM Tris-HCl buffer, pH 8.0 containing 225 mM NaCl, 0.5% Triton X-100) and centrifuged at 2,300×g at 4° C. The agarose beads were suspended in 30 μL of 1×SDS-PAGE sample buffer (50 mM Tris-HCl, pH 6.8 containing 10% glycerol, 2% SDS, 50 mM DTT, 200 mM 2-mercaptoethanol, and 0.001% bromophenol blue), and the mixture was boiled for 5 min. The samples were then resolved on a 4-12% Bis-Tris Criterion XT gel and transferred to a PVDF membrane. The membrane was dehydrated with methanol, and then probed with rabbit anti-FLAG antibody (Sigma; 1:1,000 dilution in blocking buffer (PBS 21 containing 3% non-fat dried milk and 0.01% Tween 20)) for 90 min. […] Blots were washed 4×3 min in PBS, and the immunoreactive bands were detected with a SuperSignal West Dura kit and a ChemiDoc XRS system. Protein bands were quantified using Quantity One software (Bio-Rad). For each experiment, boxes of equal size were drawn around the FLAG-Gli2 and FLAG-Gli2R bands. Band intensities were then normalized to the average intensity for all bands in a given experiment. The results from all experiments were averaged and normalized relative to the basal level of FLAG-Gli2 (DMSO treatment without Shh-N-conditioned medium).
# Hh pathway [4] = assay: Shh-LIGHT2 assay for Hh pathway activation (Gli-dependent firefly luciferase); type: cell-based; conditions: 0.5 μM SAG versus Shh
# Method: Shh-LIGHT2 assay for Hh pathway activation and library screening conditions. h-N-conditioned medium was prepared as previously described. […] For 96-well plate assays, Shh-LIGHT2 cells were seeded into each plate (10,000 cells/well) and cultured to confluency. The Shh-LIGHT2 cells were then grown in DMEM containing 0.5% CS, 100 U/mL penicillin, 0.1 mg/mL streptomycin, either 5% Shh-N-conditioned medium or 500 nM SAG, and various concentrations of the HPIs. After the cells were cultured for another 30 h, the resulting firefly and Renilla luciferase activities were measured using a Dual Luciferase Reporter kit (Promega) and a Veritas microplate luminometer (Turner Biosystems).
# When the cells reached >90% confluency, they were removed by trypsinization and diluted to a final volume of 50 mL medium. This cell suspension was then plated into clear-bottom, white-walled 384-well plates using a Titertek Multidrop dispenser (50 μL/well) and the cells were cultured until they reached confluency (3-4 days). […] The plates were then placed into an automated Staccato system (Caliper Life Sciences), which includes an automated CO2 incubator. An automated protocol was then run, in 3 which a Multidrop dispenser added 10 μL of a SAG solution in 0.5% CS medium (final SAG concentration of 500 nM) to columns 1-22 and 100 nL of each compound solution was added to the plates using a V&P Scientific pin tool, resulting in a final compound screening concentration of 10 μM. The SAG-free wells were used as negative controls. After 28-32 h, the assay medium was manually removed and the plates were frozen. To assay the firefly luciferase activities, the plates were thawed and placed into a Twister II stacker in the Staccato system. Bright-Glo luciferase substrate (Promega) was added by the Multidrop dispenser and the plates were analyzed on an Analyst GT microplate reader (2 min in the dark, 0.2 sec integration/well; Molecular Devices). Hits were defined as compounds that reduce the firefly luciferase signal by at least 50% compared to inhibitor-free controls. Primary hits were then re-tested in duplicate in an eight-point, 1:1 serially diluted doseresponse curve with a starting concentration of 20 μM. In these experiments, the median inhibitory concentration (IC50) for both firefly and Renilla luciferase were determined using a Dual-Glo kit (Promega).
# Chain of Smo (P56726 33-793): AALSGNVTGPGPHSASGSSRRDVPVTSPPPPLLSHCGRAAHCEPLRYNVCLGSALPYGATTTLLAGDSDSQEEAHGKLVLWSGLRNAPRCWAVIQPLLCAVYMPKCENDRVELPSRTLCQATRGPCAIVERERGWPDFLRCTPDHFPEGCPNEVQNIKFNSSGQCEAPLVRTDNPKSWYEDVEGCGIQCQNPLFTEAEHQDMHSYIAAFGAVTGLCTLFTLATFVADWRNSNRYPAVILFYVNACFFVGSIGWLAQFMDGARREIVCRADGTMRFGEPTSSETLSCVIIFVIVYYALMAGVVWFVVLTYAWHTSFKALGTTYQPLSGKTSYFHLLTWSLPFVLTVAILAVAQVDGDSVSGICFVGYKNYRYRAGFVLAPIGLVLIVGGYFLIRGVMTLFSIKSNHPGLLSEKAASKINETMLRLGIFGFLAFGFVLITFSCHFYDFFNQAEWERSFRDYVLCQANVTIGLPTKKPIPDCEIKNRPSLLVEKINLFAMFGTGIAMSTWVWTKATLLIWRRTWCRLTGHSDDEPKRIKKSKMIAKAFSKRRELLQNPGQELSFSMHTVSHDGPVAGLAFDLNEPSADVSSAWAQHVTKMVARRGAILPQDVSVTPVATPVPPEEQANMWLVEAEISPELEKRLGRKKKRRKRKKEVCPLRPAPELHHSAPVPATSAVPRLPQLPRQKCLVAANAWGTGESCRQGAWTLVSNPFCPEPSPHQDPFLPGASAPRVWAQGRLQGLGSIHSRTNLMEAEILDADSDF
# Chain of Smo (P56726 33-793): as above
compound,measurement,setting,value
N#CC(=C(/N)Sc1ccccc1N)/C(C#N)=C(\N)Sc1ccccc1N [Compound U0126],PDGF-induced phosphorylation of p44/p22 MAPK,MAPK,blocked p44/p22 MAPK phosphorylation
"CNC1CCC(N(Cc2cccc(-c3ccncc3)c2)C(=O)c2sc3ccccc3c2Cl)CC1 (centres unmarked) [SAG, reference compound]",Shh-induced fold change in Smo-CFP/Smo-YFP FRET,Smo,Shh-insensitive
"CC1=C2C[C@H]3[C@@H](CC=C4C[C@@H](O)CC[C@@]43C)[C@@H]2CC[C@]12O[C@@H]1C[C@H](C)CN[C@H]1[C@H]2C [cyclopamine, reference compound]",Block of Shh-induced differentiation of C3H10T(1/2) cells into osteoblasts,C3H10T(1/2) cells,block the Shh-induced differentiation
same,"Fluorescence intensity of Shh-treated Shh-EGFP cells (FACS, words)",Hh pathway [1],fluorescence intensities similar to those of untreated cells
same,Inhibition of Hh pathway activity in Ptch1-/- fibroblasts,Hh pathway [2],inhibit Hh pathway activity
same,Inhibition of SmoM2-dependent Gli reporter expression in SmoM2-LIGHT cells,Hh pathway [3],significantly less potent
same,FLAG-Gli2 levels and processing (immunoblotting),FLAG-Gli2,can suppress the effects of Shh
same,Inhibition of Hh pathway activation induced by 0.5 μM SAG,Hh pathway [4],resistant to inhibition
